Assay results reported in ChEMBL document CHEMBL1201862, “PubChem BioAssay data set” (2004).
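Five compound concentrations were applied to cells in 96-well plates for 48 hours; endpoints were derived by simple linear interpolation of the resulting dose-response curve. GI50 marks 50% less growth.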 Active and inactive are the calls of the source. No stated cut-off is given here; in the data, active = GI50 up to about 1.1 µM and inactive = higher.

Columns and labels:
Test in all cases: NCI-60 cell line screen, 48 h
DLD-1 = system: DLD-1
SNB-78 = system: SNB-78
DMS-273 = system: DMS-273
LXFL 529 = system: LXFL 529
XF498 = system: XF498
KM-20L2 = system: KM-20L2
RXF 631 = system: RXF 631
HOP-18 = system: HOP-18
M19-MEL = system: M19-MEL

Measured: GI50

C=CCCC(C)N(C(=O)OC(C)(C)C)S(=O)(=O)c1ccc(C)cc1 (stereo not given)
inactive: DLD-1 > 100 µM | SNB-78 > 100 µM | DMS-273 > 100 µM | LXFL 529 > 100 µM | XF498 > 100 µM | KM-20L2 > 100 µM

CC(=O)Nc1ccc(C2C(C(=O)Nc3ccccc3C)=C(C)NC(C)=C2C(=O)Nc2ccccc2C)cc1
inactive: DLD-1 > 100 µM | SNB-78 > 100 µM | RXF 631 > 100 µM | DMS-273 > 100 µM | LXFL 529 > 100 µM | HOP-18 > 100 µM | XF498 > 100 µM | KM-20L2 > 100 µM | M19-MEL > 100 µM

c1cc2c(ncc3cscc32)s1
inactive: DLD-1 > 100 µM | SNB-78 > 100 µM | RXF 631 > 100 µM | DMS-273 > 100 µM | LXFL 529 > 100 µM | XF498 > 100 µM | M19-MEL > 100 µM

CCOC(=O)CCC(NC(=O)c1ccc(NCc2ccc3nc(-c4ccccc4)c(Cl)nc3c2)cc1)C(=O)OCC (stereo not given)
inactive: DLD-1 28.6 µM | SNB-78 32.4 µM | RXF 631 13.2 µM | DMS-273 21.4 µM | LXFL 529 18.2 µM | XF498 1.58 µM | KM-20L2 80.5 µM | M19-MEL 17.4 µM

CC1C=C[C@H](Sc2ccccc2)CC[C@@]1(C)O (stereo not given in full)
inactive: DLD-1 > 100 µM | SNB-78 > 100 µM | LXFL 529 99.3 µM | KM-20L2 > 100 µM | M19-MEL > 100 µM

Cc1ccc(S(=O)(=O)NC2(C=O)CCCC3CCCCC32)cc1 (stereo not given)
inactive: DLD-1 > 100 µM | SNB-78 > 100 µM | RXF 631 > 100 µM | DMS-273 > 100 µM | LXFL 529 > 100 µM | HOP-18 > 100 µM | KM-20L2 > 100 µM | M19-MEL > 100 µM

NC(=O)C(=O)N/N=C(\CC1(O)C(=O)Nc2ccccc21)c1ccc2ccccc2c1 (stereo not given)
inactive: DLD-1 37.8 µM | SNB-78 72.9 µM | DMS-273 28.2 µM | LXFL 529 31.5 µM | HOP-18 46.3 µM | XF498 30.5 µM | M19-MEL 25.2 µM

COC(=O)c1ccc2n[se]nc2c1
inactive: DLD-1 > 100 µM | SNB-78 > 100 µM | RXF 631 > 100 µM | DMS-273 > 100 µM | LXFL 529 > 100 µM | HOP-18 > 100 µM | XF498 > 100 µM | KM-20L2 > 100 µM | M19-MEL > 100 µM

CC(=O)O[C@]12CCCCC1C1(O)C(O)CCCC[C@H]12 (stereo not given in full)
inactive: SNB-78 > 100 µM | DMS-273 > 100 µM | LXFL 529 > 100 µM | HOP-18 > 100 µM | KM-20L2 > 100 µM | M19-MEL > 100 µM

COC(=O)C1[C@@H](C(=O)OC)C12C=Cc1ccccc1C=C2 (stereo not given in full)
inactive: DLD-1 > 100 µM | SNB-78 > 100 µM | DMS-273 > 100 µM | LXFL 529 > 100 µM | XF498 51.6 µM | KM-20L2 > 100 µM | M19-MEL > 100 µM

CC1OC(=O)C(O)=C1O (stereo not given)
inactive: SNB-78 > 100 µM | DMS-273 > 100 µM | LXFL 529 > 100 µM | HOP-18 > 100 µM | XF498 > 100 µM | KM-20L2 > 100 µM | M19-MEL > 100 µM

CCOc1ccc2c(c1)[n+]([O-])c(-c1nc3ccccc3s1)c(N)[n+]2[O-]
inactive: DLD-1 76.4 µM | SNB-78 > 100 µM | DMS-273 52.6 µM | LXFL 529 37.4 µM | HOP-18 15.4 µM | XF498 25.8 µM | KM-20L2 > 100 µM | M19-MEL > 100 µM

COc1ccc(NC(=O)CC(=O)N/N=C/c2ccc(N(CCC#N)S(C)(=O)=O)cc2)cc1
inactive: DLD-1 > 100 µM | SNB-78 > 100 µM | RXF 631 > 100 µM | DMS-273 > 100 µM | LXFL 529 > 100 µM | HOP-18 > 100 µM | KM-20L2 > 100 µM | M19-MEL > 100 µM

CCOC(=O)/C(=C/c1ccc(N(C)C)cc1)N(CC)CC
inactive: SNB-78 69.3 µM | LXFL 529 34.6 µM | XF498 > 100 µM | KM-20L2 > 100 µM | M19-MEL 24.6 µM
